pEC50: −log10 of the molar value.
What was measured:
[1] = system: Caco-2 cells (clone C2BBel); experiment: CACO-2 permeability; type: in vitro ADME; details: donor pH 6.5, receiver pH 7.4; for DM Caco2 A to B: forward (A to B); for DM Caco2 B to A: reverse (B to A)
Protocol: Pre-plated Caco-2 cells (clone C2BBel) were obtained from Sigma-Aldrich, Inc. (Atlanta, GA). Cell monolayers were grown to confluence on collagen-coated, microporous, polycarbonate membranes in 24-well transwell plates for 21 days. The permeability assay buffer in donor wells was Hanks' balanced salt solution (HBSS) containing 10 mM HEPES and 15 mM glucose at a pH of 6.5 containing 200 μM BNPP. The receiver wells used HBSS buffer containing 10 mM HEPES and 15 mM glucose at a pH of 7.4 and supplemented with 1% BSA. After an initial equilibration with transport buffer, TEER values were read to test membrane integrity. The experiment was started by the addition of buffers containing test compounds, 200 μl and 1000 μl in the apical and basolateral chamber, respectively. At 0- and 2-hour post dose, 10 μL was sampled from donor compartment and was immediately diluted in 190 μL of 20% methanol. At 1 and 2 hours post dose, 100 μl of solution was taken from the receiver compartments and was immediately diluted in 100 μl of 20% methanol. Removed buffer was replaced with fresh buffer and a correction was applied to all calculations for the removed material. Each compound was tested in 2 separate replicate wells for each condition. All samples were then extracted with 400 μl 100% acetonitrile with internal standard to precipitate protein. Cells were dosed on the apical or basolateral side to determine forward (A to B) and reverse (B to A) permeability. To test for non-specific binding and compound instability, the total amount of drug was quantitated at the end of the experiment and compared to the material present in the original dosing solution as a percent recovery. Formation of the parent compound (GS-441524; Reference Compound A) was monitored in assay wells dosed with the prodrug. Samples were analyzed by LC-MS/MS.

[2] = system: SARS Coronavirus 2 recombinant with NanoLuc (SARS-CoV2-NLuc); experiment: organism not typed; type: cell-based; details: 48 h
[3] = type: in vitro ADME; details: 2 μM
Protocol: Duplicate aliquots of plasma were warmed to 37° C. and the metabolic reactions initiated by the addition of test compound (6 μL of 0.1 mM DMSO stock) or plasma stability standard (GS-7340) to obtain a final substrate concentration of 2 μM. At 0.05, 0.5, 1, 2, 3 and 4 hr, 25 μL aliquots of the reaction mixture were transferred to plates containing 225 μl of IS/Q quenching solution. After quenching, the plates were centrifuged at 3000×g for 30 minutes, and 150 μL supernatant was diluted with 150 μL water. Aliquots (10 μL) of the diluted supernatant were analyzed on a Thermo Q-Exactive mass spectrometer as described below. Quantification of test compounds and controls was performed by analyte/internal standard peak area ratio (PAR) values measured on a Thermo Q-Exactive mass spectrometer coupled to a Dionex UltiMate 3000 HPLC with a Leap Technologies HTC PAL autosampler. The column used was a Thermo Hypersil GOLD (1.9 μm particle size, 2.1×50 mm). Mobile phase A consisted of […] formic acid in water. Mobile phase B consisted of 0.1% (v/v) formic acid in acetonitrile. Elution of analytes was achieved by a series of linear gradients of acetonitrile in water containing 0.1% (v/v) formic acid. The mass spectrometer was calibrated on a weekly basis and mass tolerance of 5 ppm was used.

in vitro [4] = type: cell-based; details: human
Protocol: Cytotoxicity of the compounds was determined in uninfected cells using the cell viability reagent in a similar fashion as described before for other cell types (Cihlar et al., Antimicrob Agents Chemother. 2008, 52(2):655-65). HEp-2 (1.5×10^3 cells/well) and MT-4 (2×10^3 cells/well) cells were plated in 384-well plates and incubated with the appropriate medium containing 3-fold serially diluted compound ranging from 15 nM to 100,000 nM. Cells were cultured for 4-5 days at 37° C. Following the incubation, the cells were allowed to equilibrate to 25° C., and cell viability was determined by adding Cell-Titer Glo viability reagent. The mixture was incubated for 10 min, and the luminescence signal was quantified using an Envision plate reader. Untreated cell and cells treated at 2 μM puromycin (Sigma, St. Louis, MO) serve as […] cell viability control, respectively. The percent of cell viability was calculated for each tested compound concentration relative to the 0% and 100% controls and the CC50 value was determined by non-linear regression as a compound concentration reducing the cell viability by […].

in vitro [5] = type: in vitro ADME; details: human, s9, pH 7.4
Protocol: Duplicate aliquots of test compound or positive control substrate (GS-7340) were added to PMSF-free Intestinal S9 fractions diluted with 100 mM phosphate buffered saline, pH 7.4, to obtain a protein concentration of 1.0 mg/mL. The S9 metabolic reactions were initiated by the addition of the substrates to the S9 reaction mixture to a final concentration of 2 μM. At 0, 10, 20, 30, 60 and 120 min, 25 μL aliquots of the reaction mixture were transferred to plates containing 225 μl of IS/Q solution. After quenching, the plates were centrifuged at 3000×g for 30 minutes, and 150 μL aliquots of each supernatant were diluted with 150 μL water. Aliquots (10 μL) of the diluted supernatant were analyzed on a Thermo Q-Exactive mass spectrometer as described below. Quantification of test compounds and controls was performed by analyte/internal standard peak area ratio (PAR) values measured on a Thermo Q-Exactive mass spectrometer coupled to a Dionex UltiMate 3000 HPLC with a Leap Technologies HTC PAL autosampler. The column used was a Thermo Hypersil GOLD (1.9 μm particle size, 2.1×50 mm). Mobile phase A consisted of […] formic acid in water. Mobile phase B consisted of 0.1% (v/v) formic acid in acetonitrile. Elution of analytes was achieved by a series of linear gradients of acetonitrile in water containing 0.1% (v/v) formic acid. The mass spectrometer was calibrated on a weekly basis and mass tolerance of 5 ppm was used.

[6] = system: Respiratory syncytial virus recombinant with luciferase (RSV-Luc5); experiment: microbe, parasite or virus in culture; type: cell-based; details: human respiratory syncytial virus, NHBE, 72 h, read-out: RSV NHBE EC50 (nM)
in vitro [7] = type: in vitro ADME; details: human, s9, pH 7.4; remark: listed apart in the source
Protocol: Duplicate aliquots of test compound or positive control substrate (GS-7340) were added to S9 stock diluted with 100 mM potassium phosphate buffer, pH 7.4, to obtain a protein concentration of 2.4 mg/mL. The S9 metabolic reactions were initiated by the addition of the substrates to the S9 reaction mixture to a final concentration of 2 μM. At 2, 12, 25, 45, 65 and 90 min, 25 μL aliquots of the reaction mixture were transferred to plates containing 225 μl of IS/Q solution. After quenching, the plates were centrifuged at 3000×g for 30 minutes, and 150 μL aliquots of each supernatant were diluted with 150 μL water. Aliquots (10 μL) of the diluted supernatant were analyzed on a Thermo Q-Exactive mass spectrometer as described below. Quantification of test compounds and controls was performed by analyte/internal standard peak area ratio (PAR) values measured on a Thermo Q-Exactive mass spectrometer coupled to a Dionex UltiMate 3000 HPLC with a Leap Technologies HTC PAL autosampler. The column used was a Thermo Hypersil GOLD (1.9 μm particle size, 2.1×50 mm). Mobile phase A consisted of […] formic acid in water. Mobile phase B consisted of 0.1% (v/v) formic acid in acetonitrile. Elution of analytes was achieved by a series of linear gradients of acetonitrile in water containing 0.1% (v/v) formic acid. The mass spectrometer was calibrated on a weekly basis and mass tolerance of 5 ppm was used.
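Wherever CC50 is given: uninfected MT-4 cells over 4-5 days by CellTiter-Glo.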

Compound | DM Caco2 A to B [1] | DM Caco2 B to A [1] | pEC50 [2] | STA Human Plasma 37 [3] | CC50 (in vitro [4]) | half-life at 2 μM (in vitro [5]) | EC50 [6] | half-life at 2 μM (in vitro [7])
N#C[C@@]1(c2ccc3c(N)ncnn23)O[C@H](COC(=O)N2C(=O)OC[C@@H]2Cc2ccccc2)[C@@H](O)[C@H]1O [Compound 4, [(2R,3S,4R,5R)-5-(4-aminopyrrolo[2,1-f][1,2,4]triazin-7-yl)-5-cyano-3,4-dihydroxy-tetrahydrofuran-2-yl]methyl (4S)-4-benzyl-2-oxo-oxazolidine-3-carboxylate] | 0.12 | 0.94 | < 4.30 | 253.23 | > 50 µM | ≥ 789 min | > 50000 nM | 
CC(C)[C@H](NC(=O)OC[C@H]1O[C@@](C#N)(c2ccc3c(N)ncnn23)[C@H](O)[C@@H]1O)C(=O)O [Compound 6, ((((2R,3S,4R,5R)-5-(4-aminopyrrolo[2,1-f][1,2,4]triazin-7-yl)-5-cyano-3,4-dihydroxytetrahydrofuran-2-yl)methoxy)carbonyl)-L-valine] | 0.05 | 0.07 | < 4.30 | 1584 | > 50 µM | ≥ 792 min | > 50000 nM | 
N#C[C@@]1(c2ccc3c(N)ncnn23)O[C@H](COC(=O)N2CCS(=O)(=O)CC2)[C@@H](O)[C@H]1O [Compound 11, [(2R,3S,4R,5R)-5-(4-aminopyrrolo[2,1-f][1,2,4]triazin-7-yl)-5-cyano-3,4-dihydroxy-tetrahydrofuran-2-yl]methyl 1,1-dioxo-1,4-thiazinane-4-carboxylate] | 0.08 | 0.11 | < 4.30 | 1584 | > 50 µM | 779 min | > 50000 nM | 
N#C[C@@]1(c2ccc3c(N)ncnn23)O[C@H](COC(=O)N2CCCO2)[C@@H](O)[C@H]1O [Compound 12, [(2R,3S,4R,5R)-5-(4-aminopyrrolo[2,1-f][1,2,4]triazin-7-yl)-5-cyano-3,4-dihydroxy-tetrahydrofuran-2-yl]methyl isoxazolidine-2-carboxylate] | 0.08 | 0.36 | < 4.30 | 938.47 | > 50 µM | 85 min | 35300 nM | 
CCCSC(=O)OC[C@H]1O[C@@](C#N)(c2ccc3c(N)ncnn23)[C@H](O)[C@@H]1O [Compound 14, [(2R,3S,4R,5R)-5-(4-aminopyrrolo[2,1-f][1,2,4]triazin-7-yl)-5-cyano-3,4-dihydroxy-tetrahydrofuran-2-yl]methyl propylsulfanylformate] | 2.06 | 9.1 | 4.93 | 495.99 | > 50 µM | 5.12 min | 2620 nM | 
CCSC(=O)OC[C@H]1O[C@@](C#N)(c2ccc3c(N)ncnn23)[C@H](O)[C@@H]1O [Compound 15, [(2R,3S,4R,5R)-5-(4-aminopyrrolo[2,1-f][1,2,4]triazin-7-yl)-5-cyano-3,4-dihydroxy-tetrahydrofuran-2-yl]methyl ethylsulfanylformate] | 1.51 | 7.08 | 4.71 | 451.78 | > 50 µM | 16.4 min | 5650 nM | 
N#C[C@@]1(c2ccc3c(N)ncnn23)O[C@H](COC(=O)SC2CCCC2)[C@@H](O)[C@H]1O [Compound 16, [(2R,3S,4R,5R)-5-(4-aminopyrrolo[2,1-f][1,2,4]triazin-7-yl)-5-cyano-3,4-dihydroxy-tetrahydrofuran-2-yl]methyl cyclopentylsulfanylformate] |  |  | 5.06 |  | 49.9 µM | 3.4 min | 2810 nM | 6.2 min
CC(C)(C)SC(=O)OC[C@H]1O[C@@](C#N)(c2ccc3c(N)ncnn23)[C@H](O)[C@@H]1O [Compound 17, [(2R,3S,4R,5R)-5-(4-aminopyrrolo[2,1-f][1,2,4]triazin-7-yl)-5-cyano-3,4-dihydroxy-tetrahydrofuran-2-yl]methyl tert-butylsulfanylformate] | 3.05 | 15.63 | ≤ 4.30 | 1343.5 | 49.8 µM | 44.5 min | 8110 nM | 
CC(=O)O[C@H]1[C@@H](OC(C)=O)[C@](C#N)(c2ccc3c(N)ncnn23)O[C@@H]1COC(=O)NC(C)C [Compound 18, [(2R,3R,4R,5R)-4-acetoxy-5-(4-aminopyrrolo[2,1-f][1,2,4]triazin-7-yl)-5-cyano-2-(isopropylcarbamoyloxymethyl)tetrahydrofuran-3-yl]acetate] | 0.8 | 6.91 | < 4.30 | 16.014 | > 50 µM | 0.581 min | > 50000 nM | 
